In patent US20250064729A1, “METHODS AND FORMULATIONS FOR IMPROVING THE PHARMACOKINETIC PROPERTIES OF NUTRACEUTICAL COMPOUNDS” (UNIVERSITY OF SOUTH CAROLINA, priority 2023, published 2025):
Values after ≈ are worked out from the molar mass of the structure shown.

Assay: Solubility assessment under saturation conditions in simulated gastrointestinal media
Conditions: thermodynamic from solid
Experimental: Biological media (Biorelevant.com, London, UK) were prepared according to the manufacturer's instructions. […] The resulting suspensions were left for 1 h at room temperature under constant magnetic stirring. A 200-μl aliquot of each suspension was taken into an Eppendorf tube and centrifuged at top speed, and 100 μl supernatant was taken for UV spectrometer detection at 434 nm for emodin and 371 nm for quercetin. The concentration was calculated based on standard curves established using pure emodin or quercetin completely dissolved in methanol.

Row | solubility at 1 h (FaSSGF (fasted-state simulated gastric fluid), pH 1.6, fassgf or other biorelevant) [µg/mL] | solubility at 1 h (FaSSIF (fasted-state simulated intestinal fluid), pH 6.5, fassif) [µg/mL] | solubility at 1 h (FeSSIF (fed-state simulated intestinal fluid), pH 5, fessif) [µg/mL] | Compound | solubility at 1 h (pH 1.6, fassgf or other biorelevant) [µg/mL] | solubility at 1 h (pH 6.5, fassif) [µg/mL]
1 |  |  |  | Cc1cc(O)c2c(c1)C(=O)c1cc(O)cc(O)c1C2=O [Emodin, 1,3,8-trihydroxy-6-methylanthraquinone] | 7.1 (≈ 26.3 µM) | 27.2 (≈ 101 µM)
2 | 20.8 (≈ 68.8 µM) | 43.4 (≈ 144 µM) | 146 (≈ 481 µM) | O=c1c(O)c(-c2ccc(O)c(O)c2)oc2cc(O)cc(O)c12 [Quercetin, 3,3′,4′,5,7-pentahydroxylflavone] |  | 
